Measurements as given in publication PMC9601137, “Deciphering Cellodextrin and Glucose Uptake in Clostridium thermocellum” (mBio, 2022).
“Also recorded” adds a separate entry of the source. Read-outs that look alike come from different tables or passages of the source.

How the values were obtained:
[1] = target: T1, CbpB (Acetivibrio thermocellus (Clostridium thermocellum), UniProt A3DE73, V209A/V350L); experiment: ITC titration of carbohydrate ligands with CbpB; assay type: binding
Description: (§1) Isothermal titration calorimetry measurements were performed at 30°C using a MicroCal PEAQ-ITC (Malvern Panalytical Ltd., Malvern, United Kingdom). Protein samples were dialyzed against buffer containing 50 mM Tris-HCl (pH 8.0) and 100 mM NaCl. Carbohydrate-ligand solutions of cellodextrins, glucose, and xylose were prepared using the same buffer as for protein dialysis. The sample cell was loaded with 280 μL of protein sample (~50 μM), and the reference cell contained distilled water. The syringe was filled with 50 μL of ligand (500 to 750 μM). Titrations were carried out by adding 0.8 μL of ligand for the first injection and 2 μL for the subsequent 19 injections, with stirring at 750 rpm. Binding parameters were determined by fitting the experimental binding isotherms using a single-site model.

[2] = target: T2, CbpA (Acetivibrio thermocellus (Clostridium thermocellum), UniProt A3DCF2); experiment: NMR titration (1H-15N HSQC) of 15N-labelled CbpA with saccharides; assay type: binding; conditions: 298 K, pH 6.5, protein:substrate up to 1:20
T2 sequence (A3DCF2 entry or part of it): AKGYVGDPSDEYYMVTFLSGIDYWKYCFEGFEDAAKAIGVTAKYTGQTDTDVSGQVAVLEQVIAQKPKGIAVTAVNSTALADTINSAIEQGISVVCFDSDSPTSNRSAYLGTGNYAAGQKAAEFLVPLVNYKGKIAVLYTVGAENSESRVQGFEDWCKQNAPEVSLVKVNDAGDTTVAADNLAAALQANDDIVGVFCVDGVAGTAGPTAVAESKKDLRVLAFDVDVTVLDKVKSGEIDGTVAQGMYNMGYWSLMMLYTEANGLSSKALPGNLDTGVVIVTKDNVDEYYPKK
Description: (§2) NMR titration experiments were performed at 298 K on a Bruker Avance III 600 MHz NMR spectrometer equipped with a cryoprobe. The ^15N-labeled protein samples contained 0.1 or 0.2 mM sugar-binding protein in 20 mM Bis-Tris (pH 6.5), 100 mM KCl, 0.02% (wt/vol) dextran sulfate sodium, and 90% H2O/10% D2O. The concentrations of carbohydrate substrates were 10, 20, or 100 mM in the same buffer. For the titration, the substrates were gradually added to the labeled proteins until the ratio of their concentrations reached 1:20. A series of two-dimensional ^1H-^15N HSQC spectra were recorded at different protein-substrate ratios during the titration.

[3] = target: T1, CbpB; experiment: NMR titration (1H-15N HSQC) of 15N-labelled CbpB with saccharides; assay type: binding; conditions: 298 K, pH 6.5, protein:substrate up to 1:20
Description: as §2

[4] = tested on: C. thermocellum cells; experiment: Cell-associated cellulosome (cellulase) activity measurement; assay type: cell-based, Clostridium thermocellum; conditions: glucose+cellobiose medium vs glucose medium
Description: C. thermocellum cells were cultivated to the early exponential stage with various carbon sources. Cell suspensions (1.0 mL) were sampled and centrifuged at 15,000 × g for 10 min to separate supernatant from the pellet. Cell-associated cellulosome activity was measured in a 1.0-mL reaction volume containing the pellet and 15 mg Avicel as the substrate, using GS-2 medium as the reaction buffer. The concentration of reducing sugars was determined by the 3,5-dinitrosalicylic acid method after incubation at 55°C for 24 h unless otherwise stated. One unit of enzyme activity is defined as the amount of enzyme that releases 1 nmol reducing sugar (glucose equivalent) per min.

[5] = target: T2, CbpA; experiment: ITC titration of carbohydrate ligands with CbpA; assay type: binding
Description: as §1

[6] = tested on: CbpC; set-up: method as in PMID 18952792; conditions: cited from earlier work
[7] = tested on: Lbp; set-up: method as in PMID 18952792; conditions: previous study; cited from earlier work
[8] = tested on: CbpD; experiment: ITC titration of carbohydrate ligands with CbpD; assay type: binding, Clostridium thermocellum; conditions: 30°C
Description: as §1

[9] = tested on: CbpD; experiment: NMR titration of 15N-labelled CbpD with saccharides; assay type: binding, Clostridium thermocellum; conditions: 298 K
Description: as §2

[10] = ITC, 30°C, 50 mM Tris-HCl pH 8.0, 100 mM NaCl, single-site model
[11] = ITC, 30°C, 50 mM Tris-HCl pH 8.0, 100 mM NaCl, single-site model, read-out: KD (dissociation constant)

T1 sequence (A3DE73 entry or part of it V209A/V350L): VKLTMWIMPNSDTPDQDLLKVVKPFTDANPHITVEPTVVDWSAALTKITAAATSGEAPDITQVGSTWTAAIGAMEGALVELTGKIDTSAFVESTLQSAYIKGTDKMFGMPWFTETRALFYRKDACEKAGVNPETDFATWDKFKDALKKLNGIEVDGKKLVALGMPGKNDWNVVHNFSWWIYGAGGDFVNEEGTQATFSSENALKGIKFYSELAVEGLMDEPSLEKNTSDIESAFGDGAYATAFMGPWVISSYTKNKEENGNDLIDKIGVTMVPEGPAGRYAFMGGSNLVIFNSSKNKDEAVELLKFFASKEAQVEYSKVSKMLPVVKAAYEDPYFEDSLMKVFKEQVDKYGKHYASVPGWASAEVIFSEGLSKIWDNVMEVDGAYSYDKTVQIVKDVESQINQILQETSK

Compound	Ka ([1]; ITC, 30°C)	TΔS ([1]; ITC, 30°C) [kcal/mol]	ΔG ([1]; ITC, 30°C) [kcal/mol]	ΔH (change in enthalpy) ([1]; ITC, 30°C) [kcal/mol]	N (number of binding site) [1, 10]	binding to CbpA in NMR titration (HSQC peak shifts) [2]	binding to CbpB in NMR titration (HSQC peak shifts) [3]	Kd [1, 11] [µM]	interaction with CbpB in ITC, in words ([1]; ITC, 30°C)	also measured
O=C[C@H](O)[C@@H](O)[C@H](O[C@@H]1O[C@H](CO)[C@@H](O)[C@H](O)[C@H]1O)[C@H](O)CO [Cellobiose, cellobiose]	5.29 ± 0.99 ×10^5 · M^−1	4.66	-7.93	-3.27 ± 0.096	1.03 ± 0.02	not	can bind; also recorded: significant peak shifts			Kd [1]: 1.89 ± 0.36 µM; induction effect on cellulosome expression (cellulase activity) ([4]; wild-type cells, 5 g/L cellobiose): significant induction effect; induction effect on cellulosome expression (cellulase activity) ([4]; ΔtransporterB and Δ2554 cells): no induction effect
OC[C@H]1O[C@@H](O[C@H]2[C@H](O)[C@@H](O)[C@H](O[C@H]3[C@H](O)[C@@H](O)[C@H](O[C@H]4[C@H](O)[C@@H](O)[C@H](O[C@H]5[C@H](O)[C@@H](O)C(O)O[C@@H]5CO)O[C@@H]4CO)O[C@@H]3CO)O[C@@H]2CO)[C@H](O)[C@@H](O)[C@@H]1O (some centres unmarked) [Cellopentaose, cellopentaose]	14.9 ± 3.3 ×10^5 · M^−1	11.3	-8.58	2.75 ± 0.072	1.02 ± 0.01			0.67 ± 0.15		
OC[C@H]1O[C@@H](O[C@H]2[C@H](O)[C@@H](O)[C@H](O[C@H]3[C@H](O)[C@@H](O)[C@H](O[C@H]4[C@H](O)[C@@H](O)C(O)O[C@@H]4CO)O[C@@H]3CO)O[C@@H]2CO)[C@H](O)[C@@H](O)[C@@H]1O (some centres unmarked) [Cellotetraose, cellotetraose]	17.8 ± 2.5 ×10^5 · M^−1	10.3	-8.68	1.66 ± 0.0263	1.02 ± 0.08			0.56 ± 0.08	highest binding affinity	Kd ([1]; ITC, 30°C, 50 mM Tris-HCl pH 8.0, 100 mM NaCl, single-site model, listed as cellotetraose, read-out: KD (dissociation constant)): 0.562 µM
OC[C@H]1O[C@@H](O[C@H]2[C@H](O)[C@@H](O)[C@H](O[C@H]3[C@H](O)[C@@H](O)C(O)O[C@@H]3CO)O[C@@H]2CO)[C@H](O)[C@@H](O)[C@@H]1O (some centres unmarked) [Cellotriose, cellotriose]	8.55 ± 1.69 ×10^5 · M^−1	10.7	-8.25	2.49 ± 0.072	0.97 ± 0.02	not	significant peak shifts	1.17 ± 0.23		
OC[C@H]1OC(O)[C@H](O)[C@@H](O)[C@@H]1O (some centres unmarked) [Glucose, glucose]						binds; also recorded: significant peak shifts	not		could not be fitted to obtain reasonable N and KD values	Kd [5]: 240 ± 95 µM; binding to CbpA in ITC, in words ([5]; ITC): remarkably weak; Ka ([5]; ITC, 30°C): 0.042 ± 0.016 ×10^5 · M^−1; TΔS ([5]; ITC, 30°C): 5.43 kcal/mol; ΔG ([5]; ITC, 30°C): -5.02 kcal/mol; ΔH (change in enthalpy) ([5]; ITC, 30°C): 0.409 ± 0.086 kcal/mol; N (number of binding site) [5, 10]: 1.06 ± 0.07; binding to CbpC in previous ITC experiments [6]: can bind
OC[C@H]1O[C@@H](O[C@H]2[C@H](O)[C@@H](CO)OC(O)[C@@H]2O)[C@H](O)[C@@H](O)[C@@H]1O (some centres unmarked) [Laminaribiose, laminaribiose]	0.93 ± 0.25 ×10^5 · M^−1	7.98	-6.91	1.09 ± 0.1	0.98 ± 0.04			10.7 ± 2.8	lower affinity compared to cellobiose	binding to Lbp in ITC assays [7]: shown to bind
O=C[C@H](O)[C@@H](O)[C@H](O)CO [xylose]										interaction with CbpD in ITC [8]: could not detect any xylose-binding ability; interaction with CbpD in NMR titration [9]: could not detect any xylose-binding ability
